According to US20240067668A1, “HETEROARYL DERIVATIVE COMPOUND AND USE THEREOF” (VORONOI INC., priority 2020, published 2024):

Columns and labels:
[1] = tested on: BaF3-EGFR (Del19/T790M/C797S) cells; assay: Inhibitory activity on Ba/F3 cell proliferation (CellTiter-Glo, 72 hours); type: cell-based; details: Ba/F3 cells expressing EGFR Del19/T790M/C797S
Experimental: (§1) The following experiments were performed to evaluate the inhibitory activity of the compound represented by Chemical Formula 1 according to the present invention on the proliferation of Ba/F3 cells expressing EGFR mutants.
(§2) BaF3-EGFR (WT) and BaF3-EGFR (Del19/T790M/C797S) cells were seeded in a clear bottom white 96-well plate at a density of 3×10^3/100 μl/well, and then 0.5 μl/well of the culture medium, containing the compounds at 12 concentrations (0.00001-2 mM) serially diluted in 3 folds and the DMSO control, was added to a final concentration of 0.00005-10 μM, followed by culturing in a 37° C. CO2 incubator for 72 hours. After 72 hours, the plates treated with the compounds were taken out, treated with 100 μl/well of CellTiter-Glo® 2.0 Assay (Promega) solution, and mixed well. After mixing well at room temperature for about 10 minutes, […] was measured using a microplate reader. As to Data, GI50 (μM) values were calculated using GraphPad Prism 8.3.0 (GraphPad software Inc., San Diego) as percentages in proportion to vehicle-based treated cells. The result values were calculated as a cell growth rate (%) compared to the control group. A graph was created using the GraphPad Prism version 5.0 program, and GI50 (μM) values were calculated.

[2] = tested on: BaF3-EGFR (WT) cells; assay: as above; type: cell-based; details: Ba/F3 cells expressing EGFR WT
Experimental: as §1, §2

| SMILES | GI50 [1] [µM] | GI50 [2] [µM] |
| --- | --- | --- |
| COc1cc(N2CCC(N3CCN(C)CC3)CC2)c(C)cc1Nc1cc(Nc2ccc3nccnc3c2P(C)(C)=O)c2cc[nH]c2n1 [Example 63, (6-((6-((2-methoxy-5-methyl-4-(4-(4-methylpiperazin-1-yl)piperidin-1-yl)phenyl)amino)-1H-pyrrolo[2,3-b]pyridin-4-yl)amino)quinoxalin-5-yl)dimethyl-phosphine oxide] | > 0.1 | > 0.1 |
| CN1CCN(c2c(-c3cnn(C)c3)cc(Nc3nc(Nc4ccc5nccnc5c4P(C)(C)=O)c4cc[nH]c4n3)c3c2OCO3)CC1 [Example 129, dimethyl (6-((2-((6-(1-methyl-1H-pyrazol-4-yl)-7-(4-methylpiperazin-1-yl)benzo[d] [1,3]dioxol-4-yl)amino)-7H-pyrrolo[2,3-d]pyrimidin-4-yl)amino)quinoxalin-5-yl)phosphine oxide] | ≤ 0.05 | > 0.1 |
| Cc1cc(Nc2nc(Nc3ccc4nccnc4c3P(C)(C)=O)c3cc[nH]c3n2)c2c(c1N1CCN(C)CC1)CCO2 [Example 121, dimethyl (6-((2-((5-methyl-4-(4-methylpiperazin-1-yl)-2,3-dihydrobenzo-furan-7-yl)amino)-7H-pyrrolo[2,3-d]pyrimidin-4-yl)amino)quinoxalin-5-yl)phosphine oxide] | > 0.1 | > 0.1 |
| COc1cc(N2CCC(N3CCN(C)CC3)CC2)c(C)cc1Nc1nc(Nc2ccc3nccnc3c2P(C)(C)=O)c2sccc2n1 [Example 59, (6-((2-((2-methoxy-5-methyl-4-(4-(4-methylpiperazin-1-yl)piperidin-1-yl)phenyl)amino)thieno [3,2-d]pyrimidin-4-yl)amino)quinoxalin-5-yl)dimethyl-phosphine oxide] | > 0.1 | > 0.1 |
| COc1cc(N2CCC(N3CCN(C)CC3)CC2)ccc1Nc1nc(Nc2ccc3nccnc3c2P(C)(C)=O)c2cc[nH]c2n1 [Example 57, (6-((2-((2-methoxy-4-(4-(4-methylpiperazin-1-yl)piperidin-1-yl)phenyl)amino)-7H-pyrrolo[2,3-d]pyrimidin-4-yl)amino)quinoxalin-5-yl)dimethyl-phosphine oxide] | 0.05 to 0.1 | 0.05 to 0.1 |
| CN1CCN(C2CCN(c3ccc(Nc4nc(Nc5ccc6nccnc6c5P(C)(C)=O)c5cc[nH]c5n4)cc3)CC2)CC1 [Example 58, dimethyl (6-((2-((4-(4-(4-methylpiperazin-1-yl)piperidin-1-yl)phenyl)amino)-7H-pyrrolo[2,3-d]pyrimidin-4-yl)amino)quinoxalin-5-yl)phosphine oxide] | 0.05 to 0.1 | > 0.1 |

Other lines, results leading:

| GI50 [1] [µM] | GI50 [2] [µM] | SMILES |
| --- | --- | --- |
| > 0.1 | > 0.1 | COc1cc(N2CCN(C)CC2)c(-c2cnn(C)c2)cc1Nc1nc(Nc2ccc3nccnc3c2P(C)(C)=O)c2c(C#N)c[nH]c2n1 [Example 52] |
| 0.05 to 0.1 | > 0.1 | COc1cc(N2CCN(C)CC2)c(-c2cnn(C)c2)cc1Nc1nc(Nc2ccc3nccnc3c2P(C)(C)=O)c2c(Cl)c[nH]c2n1 [Example 51, (6-((5-chloro-2-((2-methoxy-5-(1-methyl-1H-pyrazol-4-yl)-4-(4-methylpiperazin-1-yl)phenyl)amino)-7H-pyrrolo[2,3-d]pyrimidin-4-yl)amino)quinoxalin-5-yl)dimethyl-phosphine oxide] |
| ≤ 0.05 | > 0.1 | COc1cc(N2CCN(C3CC3)CC2)c(-c2cnn(C)c2)cc1Nc1nc(Nc2ccc3nccnc3c2P(C)(C)=O)c2cc[nH]c2n1 [Example 42, (6-((2-((4-(4-cyclopropyl-piperazin-1-yl)-2-methoxy-5-(1-methyl-1H-pyrazol-4-yl)phenyl)amino)-7H-pyrrolo[2,3-d]pyrimidin-4-yl)amino)quinoxalin-5-yl)dimethyl-phosphine oxide] |
| > 0.1 | > 0.1 | COc1cc(N2CCC(N3CCN(C)CC3)CC2)c(C(C)C)cc1Nc1nc(Nc2ccc3nccnc3c2P(C)(C)=O)c2cc[nH]c2n1 [Example 67, (6-((2-((5-isopropyl-2-methoxy-4-(4-(4-methylpiperazin-1-yl)piperidin-1-yl)phenyl)amino)-7H-pyrrolo[2,3-d]pyrimidin-4-yl)amino)quinoxalin-5-yl)dimethyl-phosphine oxide] |
